Measurements as given in patent US9657071B2, “IgE peptide vaccine” (NIPPON ZENYAKU KOGYO CO., LTD., priority 2012, dated 2017).

Experiments:
Der f 2-specific IgE = experiment: Prevention experiment in rats: Der f 2-specific IgE (ELISA); assay type: in vivo; conditions: rat, 50 μg three times, then Der f 2 + alum
Description: Der f 2 was prepared at 1 μg/mL in an immobilization buffer (0.05 M carbonate buffer, pH 9.6), then added at a concentration of 100 μL/well to an ELISA plate, and left overnight at 4° C. The immobilization plate was washed once with PBS-T (0.05%). A blocking solution (4× Block Ace, Snow Brand Milk Products Co., Ltd.; UK-B80) was added thereto at a concentration of 200 μL/well. The plate was blocked by incubation at 37° C. for 1.5 hours. The serum was diluted 20-fold with a diluent (PBS-T:Block Ace=9:1) and used. The plate was reacted with the serum at 37° C. for 1.5 hours and washed three times with PBS-T (0.05%). An anti-rat IgE antibody (Rabbit anti-Rat IgE HRP; Invitrogen Corp., 61-9520) was diluted 1000-fold with a diluent and added thereto as a secondary antibody at a concentration of 100 μL/well. After reaction at 37° C. for 1.5 hours, the plate was washed three times with PBS-T (0.05%). […] Then, the measurement was performed using a plate reader (Bio-Rad Laboratories, Inc.; model 680) (dual: measurement: 450 nm, control: 570 nm). […]
Blood was collected every 2 weeks from the administer start date. […] Serum was collected, and an IgG antibody against dog IgE was evaluated by ELISA (FIG. 16). […]

human IgE = experiment: Reactivity of serum of peptide-immunized rabbit with human IgE (ELISA); assay type: in vivo; conditions: 500 μg peptide + complete adjuvant s.c.
Description: 2 mL of the 250 μg/mL peptide (a total of 500 μg) used in Example 2 was mixed with an equal amount of a complete adjuvant (a total of 4 mL). Each rabbit was immunized with this mixture by the subcutaneous administration (amount of the peptide: 500 μg) at day 0 and weeks 2, 4, 6, and 8. Blood was collected 5 weeks after the week-8 administration (week 13 counted from day 0). Booster immunization was performed at week 14 counted from day 0, and blood was further collected 2 weeks thereafter (week 16 counted from day 0). Antibody titers in the collected blood were measured by ELISA. The serum of a rabbit that received no peptide was used as a control.
ELISA was performed by the following method: each […] recombinant CH3 solution of dog IgE, human IgE, mouse IgE, dog IgG, and cat IgE was immobilized at a concentration of 100 μL/well (100 ng/well) to a plate. The serum collected from the immunized rabbit was used (×200 to ×102400) as a primary antibody. An enzyme-labeled anti-rabbit IgG antibody (Zymed Laboratories Inc.) was used as a secondary antibody.

Row | Sequence | Der f 2-specific IgE production compared with the control group (saline) (Der f 2-specific IgE; intravenous) | Der f 2-specific IgE production compared with the control group (saline) (Der f 2-specific IgE; subcutaneous (group 2)) | response of immobilized human IgE to peptide-administered rabbit serum (human IgE)
1 | KKTSVSASQWYTKHHNNATT (listed as Mus musculus) [M4-7-11] | inhibition of IgE production was confirmed | inhibition of IgE production was remarkably confirmed | 
2 | QEKKTSVSASQWYTKHHNNATTSIT (listed as Mus musculus) [MOUSE CH3-4-17-11] |  |  | responded
